We go through one cell line from the supplement of paper PMC10307832.

What all share (experiment): relative viability (nuclei count vs DMSO), 5 days (fraction); higher = more cells survive
Compound in the assay “Staurosporine + OSI-027”: CN[C@@H]1C[C@H]2O[C@@](C)([C@@H]1OC)n1c3ccccc3c3c4c(c5c6ccccc6n2c5c31)C(=O)NC4 [Staurosporine] + COc1cccc2cc(-c3nc([C@H]4CC[C@H](C(=O)O)CC4)n4ncnc(N)c34)[nH]c12 [OSI-027] (partner 0.5 µM)
The procedure, abridged:
(§1)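 A single step with final 0.05% Triton X-100, 1% formaldehyde and 1 ug/ml Hoechst fixed the cells and stained nuclei 5 days after treatment. Lung cancer cell lines in 1536-well plates had been treated by pin tool the day after seeding with one drug alone or a fixed anchor-drug dose plus five library-drug doses (not always all listed) in √10 steps, and nuclei were counted on 4× images. Relative viability is the ratio of nuclei in treated wells to nuclei in vehicle wells, taken as the median of duplicate plates.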

Compound in assay [1]: CN[C@@H]1C[C@H]2O[C@@](C)([C@@H]1OC)n1c3ccccc3c3c4c(c5c6ccccc6n2c5c31)C(=O)NC4 [Staurosporine] + Cc1nc(Nc2ncc(C(=O)Nc3c(C)cccc3Cl)s2)cc(N2CCN(CCO)CC2)n1 [Dasatinib] (partner 0.075 µM)
The procedure, abridged: as §1

Compound in the assay “Sulindac + Tozasertib”: CC1=C(CC(=O)O)c2cc(F)ccc2/C1=C\c1ccc([S+](C)[O-])cc1 [Sulindac] + Cc1cc(Nc2cc(N3CCN(C)CC3)nc(Sc3ccc(NC(=O)C4CC4)cc3)n2)n[nH]1 [Tozasertib] (partner 0.1 µM)
The gist of the method:
as §1

Compound in the assay “Sulindac + Linsitinib”: CC1=C(CC(=O)O)c2cc(F)ccc2/C1=C\c1ccc([S+](C)[O-])cc1 [Sulindac] + C[C@]1(O)C[C@@H](c2nc(-c3ccc4ccc(-c5ccccc5)nc4c3)c3c(N)nccn32)C1 [Linsitinib] (partner 1 µM)
The procedure, abridged:
as §1

As to UMC-11, the relative viability was found to be 0.5 with Staurosporine + OSI-027 (first compound 0.005 µM); 0.151 with Staurosporine + OSI-027 (first compound 0.01581 µM); 0.138 with Staurosporine + OSI-027 (first compound 0.05 µM); 0.133 in the assay with Staurosporine + OSI-027 (first compound 0.1581 µM); 0.116 with Staurosporine + OSI-027 (first compound 0.5 µM); 0.508 in assay [1] (first compound 0.005 µM). Also, the relative viability in assay [1] (first compound 0.05 µM) is 0.149; in assay [1] (first compound 0.1581 µM), 0.114; in assay [1] (first compound 0.5 µM) it was 0.0934; with Sulindac + Tozasertib (first compound 0.08 µM), 0.204; in the assay with Sulindac + Tozasertib (first compound 0.253 µM) it was 0.192; in the assay with Sulindac + Tozasertib (first compound 0.8 µM) it was 0.228. The relative viability with Sulindac + Tozasertib (first compound 2.53 µM) is 0.2; with Sulindac + Tozasertib (first compound 8 µM), 0.204; with Sulindac + Linsitinib (first compound 0.08 µM), 1.27; with Sulindac + Linsitinib (first compound 0.253 µM), 1.02; with Sulindac + Linsitinib (first compound 0.8 µM), 0.815; with Sulindac + Linsitinib (first compound 2.53 µM), 1.06. In the assay with Sulindac + Linsitinib (first compound 8 µM), the relative viability was 1.07.
